Measurements published in paper PMC9489722, “Identification and development of a subtype-selective allosteric AKT inhibitor suitable for clinical development” (Scientific Reports, 2022).

What was measured:
[1] = system: pGSK3β in PC3 prostate cancer cells; experiment: pGSK3β ELISA in PC3 cells; assay type: cell-based; settings: Homo sapiens, PC-3; PC3 cells, 24 h
Description: (§1) Cells were then washed with PBS and lysed. The subsequent supernatant was assayed using a GSK3β (pS9) (Invitrogen, Life Technologies) ELISA. Phospho-AKT levels were detected using the phospho-AKT (S473) immunoassay (R&D Systems) as per manufacturer’s protocol. Percentage inhibition of phosphorylation status was calculated by comparing phospho-AKT levels to total AKT levels with each treatment and IC50 values derived using non-linear regression on GraphPad Prism.

Kinetic solubility assay = assay type: physicochemical; settings: PBS buffer, pH 7.4, aqueous buffer, kinetic from dmso stock, PBS pH 7.4; read-out: Kinetic solubility pH7.4
Description: Compound solubility was tested in Dulbecco A PBS buffer at pH7.4 in Millipore MultiScreen Solubility Filter plates. Analysis was carried out on a Bioteck Synergy 4 plate reader (240–400 nm) and solubility quantified against a 5-point calibration curve.

[2] = In vitro microsomal stability, rat; assay type: in vitro ADME; settings: pH 7.4; rat liver microsomes; read-out: rat LM CLint
Description: (§2) Compounds (final concentration = 1 µM; final DMSO concentration = 0.1%) were incubated in 0.1 M phosphate buffer at pH 7.4 with liver microsomes (human, mouse, rat or dog; 0.5 mg of protein/mL) at 37 °C. Reactions were started by addition of NADPH in 0.1 M phosphate buffer pH 7.4 (final concentration 1 mM). Reactions were quenched by addition of ice-cold methanol and frozen. The supernatants were analysed by LC/MS/MS on a Waters Acquity I-Class coupled to a Waters Xevo TQD mass spectrometer. A Waters BEH C18 2.1 × 50 mm 1.7 µm column was used and mobile phases consisted of water and methanol containing 0.1% formic acid as modifier. Analysis was by multiple reaction monitoring and conditions were optimised for each test compound.

[3] = In vitro microsomal stability, mouse; assay type: in vitro ADME; settings: pH 7.4; mouse liver microsomes; read-out: mouse LM CLint
Description: as §2

CYP 1A2 = CYP 1A2 (Homo sapiens, UniProt P05177); experiment: CYP1A2 inhibition; assay type: in vitro ADME
[4] = Pharmacokinetic study in Sprague–Dawley rats; assay type: in vivo, rat; settings: male SD rats
Description: Eight rats were purchased and 6 used on the PK study (3 per administration route). The remaining rats were purchased in case of mis-dosing events and were used to obtain blank biological matrix. Compounds were administered as single i.v. doses at 1 mg free base/kg or single oral doses at 5 mg free base/kg, with blood samples obtained from three rats per dose route, at 9 time-points out to 24 h post-dose. Both the intravenous and oral doses were prepared at a concentration of 1 mg free base/mL in a mixture of 5% DMSO/95% saline. Blood samples were centrifuged to give plasma. Plasma proteins were precipitated, and compounds extracted by addition of six volumes of acetonitrile containing warfarin as internal standard. Samples were centrifuged at 4000 rpm for 30 min and the supernatants were analysed on a Waters Xevo TQ mass spectrometer. Multiple Reaction Monitoring (MRM) methods were developed for each test compound using Waters IntelliStart software.
Quantification of test compounds was by extrapolation from calibration lines prepared in control rat plasma and analysed concurrently with experimental samples.
Non-compartmental analysis was performed using the software package PK Solutions 2.0 from Summit Research Services to produce the PK parameters. AUC values were calculated by the trapezoidal method.
Oral bioavailability was estimated by comparison of the drug concentration/time AUCs for individual animals after oral dosing with the mean AUC from i.v. doses.

AKT3 = target: T1, AKT3 (Homo sapiens, UniProt Q9Y243); experiment: SelectScreen kinase selectivity profiling, AKT3; assay type: biochemical; settings: read-out: % inhibition @ 10 µM, AKT3; 10 µM fixed concentration
T1 construct: purchased Signal Chem
Description: Off-target kinase activity was performed using the SelectScreen kinase profiling service against either mini 50 kinase or full 450 kinase panels using the Z’lyte and Adapta kinase activity platforms (performed by Thermofisher).

normal cell lines = experiment: In vitro proliferation assay (CellTiter-Glo), normal cell lines; assay type: cell-based; settings: normal cell lines, 72 h; read-out: anti-proliferative IC50, normal cells
Description: (§3) MCF-7, T47D, NCI-H460, HCT116, LNCaP, A431, PC3, PANC-1, A549, HT29M, SKOV-3, Du145, HMEC-1, Hs888Lu, Hela, MDA-MB-231 and SW480 cells were obtained from American Type Culture Collection (ATCC). A2780, PNT2, U251MG, HFFF2 and Fr2 cells were obtained from Public Health England European Collection of Authenticated Cell Cultures (Phe ECACC). InMyoFib and NHLF cells were acquired from Lonza. Cells were then incubated with increasing concentration of inhibitor (1 nM to 100 µM) for 72 h at 37 °C. Cell viability was determined using the CellTiter-Glo Luminescent Cell Viability Assay (Promega). IC50 values were derived as previously stated.

A549 cells = experiment: In vitro proliferation assay (CellTiter-Glo), A549; assay type: cell-based; settings: Homo sapiens; A549 cell line
Description: as §3

MCF-7 cells [5] = experiment: In vitro Incucyte live cell imaging proliferation assay; assay type: cell-based; settings: MCF-7, 5 µM, 7d time course
Description: MCF-7 cells were obtained from American Type Culture Collection (ATCC). […] Cell confluency was measured over time using an Incucyte Zoom S3 using the basic analyser processing analysing tool. Percentage confluence values were calculated and IC50 values were derived as previously stated.

[6] = system: pAKT (Ser473) in MCF-7 cells; experiment: phospho-AKT (S473) ELISA in MCF-7 cells; assay type: cell-based; settings: Homo sapiens, MCF7, 24h treatment, read-out: EC50 inhibition of phosphorylation of AKT
Description: as §1

MCF-7 cells [7] = experiment: Cell cycle flow cytometry; assay type: cell-based
Description: MCF-7 breast cancer cells were treated with increasing concentrations of ALM301 (0.1–100 µM) for 72 h. Post treatment, media containing detached cells was collected for each sample and the remaining adherent cells detached using 0.1% EDTA in PBS. Resulting cell suspensions were incorporated with associated media, centrifuged to form a pellet, washed with 1% FCS in PBS and fixed using ice-cold ethanol. Samples were stored at 4 °C for 24 h before staining with propidium iodide (10 µg/mL) (Sigma) containing 2.5 mg/mL RNase A (Qiagen) for 30 min at 37 °C and stored overnight at 4 °C before analysis. A minimum of 10,000 cells per sample were analysed for DNA content using a FACSCalibur flow cytometer and CellQuest Pro software (Becton Dickinson).

T1 sequence (Q9Y243 whole entry): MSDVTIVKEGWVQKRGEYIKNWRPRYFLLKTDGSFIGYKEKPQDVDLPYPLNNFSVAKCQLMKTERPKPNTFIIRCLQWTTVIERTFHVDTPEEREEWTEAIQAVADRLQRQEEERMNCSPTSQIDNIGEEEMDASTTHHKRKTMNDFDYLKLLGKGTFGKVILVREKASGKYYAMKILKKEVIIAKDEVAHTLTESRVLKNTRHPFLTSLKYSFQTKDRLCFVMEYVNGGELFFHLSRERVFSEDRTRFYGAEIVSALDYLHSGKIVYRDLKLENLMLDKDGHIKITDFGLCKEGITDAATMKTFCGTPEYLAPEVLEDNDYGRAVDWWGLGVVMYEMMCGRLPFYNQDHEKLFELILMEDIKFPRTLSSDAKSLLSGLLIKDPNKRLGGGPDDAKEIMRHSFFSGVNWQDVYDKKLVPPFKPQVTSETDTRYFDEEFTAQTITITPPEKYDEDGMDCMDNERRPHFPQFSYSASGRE
Chain of CYP 1A2 (P05177 whole entry): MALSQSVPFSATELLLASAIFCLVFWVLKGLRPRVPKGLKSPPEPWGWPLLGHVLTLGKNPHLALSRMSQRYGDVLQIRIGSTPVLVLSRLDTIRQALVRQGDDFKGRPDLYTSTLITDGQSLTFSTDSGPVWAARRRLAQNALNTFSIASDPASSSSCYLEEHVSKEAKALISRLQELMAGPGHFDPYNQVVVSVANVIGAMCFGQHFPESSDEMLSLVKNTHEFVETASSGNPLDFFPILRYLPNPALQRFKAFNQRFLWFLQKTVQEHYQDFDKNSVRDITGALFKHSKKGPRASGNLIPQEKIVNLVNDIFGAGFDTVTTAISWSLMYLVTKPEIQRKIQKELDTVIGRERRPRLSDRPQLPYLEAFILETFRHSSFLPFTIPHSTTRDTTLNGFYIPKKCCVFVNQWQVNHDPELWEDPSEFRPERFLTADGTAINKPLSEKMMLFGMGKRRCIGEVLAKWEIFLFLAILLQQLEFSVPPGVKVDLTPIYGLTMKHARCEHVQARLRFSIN

CCN1C(=O)COc2nc(-c3ccc([C@]4(N)C[C@@H](O)C4)cc3)c(-c3ccccc3)cc21 [ALM301, 6-(4-((1S,3S)-1-amino-3-hydroxycyclobutyl)phenyl)-1-ethyl-7-phenyl-1H-pyrido[2,3-b][1,4]oxazin-2(3H)-one]
IC50 [1]: 0.16 µM | solubility kinetic (Kinetic solubility assay): 192 µM | microsomal CLint at 1 µM [2]: 3 µL/min/mg | microsomal CLint at 1 µM [3]: 6 µL/min/mg | IC50 (CYP 1A2): > 25 µM | clearance ([4]; Sprague-Dawley, rat, plasma, iv, 1 mg/kg i.v., read-out: Rat PK CL): 19 mL/min/kg | Vd ([4]; Sprague-Dawley, rat, plasma, iv, 1 mg/kg i.v., read-out: Rat PK Vd): 13 L/kg | Rat PK F ([4]; 1 mg/kg i.v. and 5 mg/kg p.o., AUC 0-∞): 26% | inhibition at 10 µM (AKT3): 72% | IC50 (normal cell lines): > 20 µM | IC50 (A549 cells): 43 µM | cell proliferation by live cell imaging (MCF-7 cells [5]): completely abrogated cell proliferation | EC50 [6]: 0.47 µM | sub-G0 population (cell-cycle analysis) (MCF-7 cells [7]; MCF-7, 0.1–100 µM, 72 h): increase of sub-G0 population in a concentration dependent manner | increase in sub-G0 population compared to ALM301 alone (MCF-7 cells [7]; MCF-7, ALM301 in combination with tamoxifen): 4.5 ×
